We go through 37 compounds from the Kinase Knowledgebase extract (Sharma et al. 2016).

The assay has as its target ROCK2 (human) (UniProt O75116). Kind of assay: Inhibition of ROCK2 Kinase Activity.

By IC50 is commonly meant the concentration that inhibits the measured activity by half. Higher therefore signals weaker potency.

SMILES strings stand for the structures.

Chain of ROCK2 (human) (O75116 whole entry, looked up): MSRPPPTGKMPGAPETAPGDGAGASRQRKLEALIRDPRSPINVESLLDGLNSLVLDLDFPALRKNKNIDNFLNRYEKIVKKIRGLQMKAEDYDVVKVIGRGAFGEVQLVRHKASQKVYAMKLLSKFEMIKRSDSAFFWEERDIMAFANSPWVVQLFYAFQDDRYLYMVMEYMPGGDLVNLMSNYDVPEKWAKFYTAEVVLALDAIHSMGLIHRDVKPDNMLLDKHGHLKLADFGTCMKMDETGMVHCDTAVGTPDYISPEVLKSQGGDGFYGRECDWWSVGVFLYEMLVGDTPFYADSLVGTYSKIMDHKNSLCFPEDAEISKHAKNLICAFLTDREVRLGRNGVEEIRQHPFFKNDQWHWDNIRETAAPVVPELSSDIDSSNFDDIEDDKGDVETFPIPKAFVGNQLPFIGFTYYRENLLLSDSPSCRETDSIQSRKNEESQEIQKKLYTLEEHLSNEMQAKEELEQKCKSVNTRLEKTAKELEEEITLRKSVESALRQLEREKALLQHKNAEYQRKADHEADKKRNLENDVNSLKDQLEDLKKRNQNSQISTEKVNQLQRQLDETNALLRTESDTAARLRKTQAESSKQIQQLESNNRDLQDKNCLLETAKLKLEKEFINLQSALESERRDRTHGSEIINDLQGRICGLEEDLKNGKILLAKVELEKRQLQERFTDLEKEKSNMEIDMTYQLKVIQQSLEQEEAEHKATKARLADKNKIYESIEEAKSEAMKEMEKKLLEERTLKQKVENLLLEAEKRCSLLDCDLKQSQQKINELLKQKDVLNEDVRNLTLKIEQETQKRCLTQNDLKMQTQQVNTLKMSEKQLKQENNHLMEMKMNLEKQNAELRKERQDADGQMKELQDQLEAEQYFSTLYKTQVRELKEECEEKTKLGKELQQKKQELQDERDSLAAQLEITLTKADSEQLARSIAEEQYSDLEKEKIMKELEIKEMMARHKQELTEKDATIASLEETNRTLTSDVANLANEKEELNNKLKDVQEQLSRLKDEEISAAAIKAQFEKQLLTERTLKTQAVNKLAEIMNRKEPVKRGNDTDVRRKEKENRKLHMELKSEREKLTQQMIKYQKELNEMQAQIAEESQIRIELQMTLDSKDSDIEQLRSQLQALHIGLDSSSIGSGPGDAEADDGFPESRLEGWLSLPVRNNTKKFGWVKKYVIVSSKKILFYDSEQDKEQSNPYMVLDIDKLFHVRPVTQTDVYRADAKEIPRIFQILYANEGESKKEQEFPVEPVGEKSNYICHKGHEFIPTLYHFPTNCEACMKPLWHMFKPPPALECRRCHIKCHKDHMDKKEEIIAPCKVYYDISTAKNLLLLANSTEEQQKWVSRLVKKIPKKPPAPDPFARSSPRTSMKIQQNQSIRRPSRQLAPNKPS

In the case of `CS(=O)(=O)Nc1cccc(C(=O)NCc2nc(-c3c[nH]c4ncccc34)n[nH]2)c1`, the half-inhibitory concentration (IC50) was ≤ 5 µM.
On to `COc1ccc(C(=O)NCc2nc(-c3ccncc3)n[nH]2)c(O)c1`, for which the IC50 is ≤ 5 µM.
As for `O=C(NCc1nc(-c2c[nH]c3ncccc23)n[nH]1)c1cccc(I)c1`, the figure is > 5 µM; as for `O=C(NCc1nc(-c2ccncc2)n[nH]1)c1ccc(I)cc1`, > 5 µM; as for `O=C(NCc1nc(-c2c[nH]c3ncccc23)n[nH]1)C1=C(O)CC=CC([N+](=O)[O-])=C1`, > 5 µM.
On to `CCCOc1ccc(C(=O)NCc2nc(-c3ccncc3)n[nH]2)cc1`, for which the half-inhibitory concentration (IC50) is > 5 µM.
The same measure for `Cc1cc(C(=O)NCc2nc(-c3ccncc3)n[nH]2)cc(Cl)n1`: > 5 µM; for `COc1ccc(C(=O)NCc2nc(-c3c[nH]c4ncccc34)n[nH]2)c(OC)c1`: > 5 µM.
`Cc1c(Cl)ccc(S(=O)(=O)NCc2nc(-c3ccncc3)n[nH]2)c1O`: the IC50 was > 5 µM.
In the case of `Cc1cccc(CCC(=O)NCc2nc(-c3c[nH]c4ncccc34)n[nH]2)c1`, the IC50 was > 5 µM.
Consider `CC(C(=O)NCc1nc(-c2c[nH]c3ncccc23)n[nH]1)c1ccc(O)cc1` (configuration not stated), for which the IC50 was > 5 µM.
As for `O=C(NCc1nc(-c2c[nH]c3ncccc23)n[nH]1)C1CCCO1` (configuration not stated), the IC50 is > 5 µM.
As for `O=C(Cc1ccccc1CO)NCc1nc(-c2c[nH]c3ncccc23)n[nH]1`, the figure is > 5 µM; as for `O=C(C=Cc1ccc(Cl)cc1)NCc1nc(-c2c[nH]c3ncccc23)n[nH]1`, > 5 µM; as for `Cc1ccc(C)c(C(=O)NCc2nc(-c3ccncc3)n[nH]2)c1`, > 5 µM.
Turning to `O=C(NCc1nc(-c2c[nH]c3ncccc23)n[nH]1)c1ccc(F)c([N+](=O)[O-])c1`, the 50% inhibitory concentration (IC50) is > 5 µM.
Consider `Cc1cccc(CCC(=O)NCc2nc(-c3ccncc3)n[nH]2)c1`, for which the half-inhibitory concentration (IC50) was > 5 µM.
As for `O=C(NCc1nc(-c2c[nH]c3ncccc23)n[nH]1)c1ccccc1Cc1ccccc1`, the IC50 is > 5 µM.
With `COc1cc(OC)cc(C(=O)NCc2nc(-c3c[nH]c4ncccc34)n[nH]2)c1`, the IC50 is > 5 µM.
`COc1cccc(O)c1C(=O)NCc1nc(-c2c[nH]c3ncccc23)n[nH]1`: the half-maximal inhibitory concentration (IC50) was > 5 µM.
For `O=C(NCc1nc(-c2c[nH]c3ncccc23)n[nH]1)c1cncc(Br)c1`, the IC50 was > 5 µM.
The same measure for `O=C(NCc1nc(-c2ccncc2)n[nH]1)c1c2ccccc2cc2ccccc12`: > 5 µM.
With `O=C(NCc1nc(-c2ccncc2)n[nH]1)c1c(O)ccc2ccccc12`, the IC50 was > 5 µM.
Regarding `Cc1ccc(SCC(=O)NCc2nc(-c3c[nH]c4ncccc34)n[nH]2)cc1`, the IC50 was > 5 µM.
For the compound `O=C(Cc1ccc(Br)cc1)NCc1nc(-c2c[nH]c3ncccc23)n[nH]1`, the IC50 is > 5 µM.
Take `CCCCCCCC(=O)NCc1nc(-c2ccncc2)n[nH]1`: the IC50 is > 5 µM.
In the case of `O=C(NCc1nc(-c2ccncc2)n[nH]1)c1ccccc1O`, the half-inhibitory concentration (IC50) was ≤ 5 µM.
`O=C(NCc1nc(-c2c[nH]c3ncccc23)n[nH]1)c1cc2cc(Cl)ccc2o1`: the half-inhibitory concentration (IC50) is > 5 µM.
As for `O=Cc1ccccc1C(=O)NCc1nc(-c2ccncc2)n[nH]1`, the IC50 is > 5 µM.
`O=C(NCc1nc(-c2c[nH]c3ncccc23)n[nH]1)c1ccnc(Cl)c1`: the IC50 is > 5 µM.
On to `O=C(Cc1ccccc1O)NCc1nc(-c2ccncc2)n[nH]1`, for which the IC50 is > 5 µM.
For the compound `CC(C)C(NC(=O)OC(C)(C)C)C(=O)NCc1nc(-c2c[nH]c3ncccc23)n[nH]1` (configuration not stated), the IC50 is > 5 µM.
The same measure for `O=C(NCc1nc(-c2c[nH]c3ncccc23)n[nH]1)c1ccccc1[N+](=O)[O-]`: > 5 µM.
With `O=C(NCc1nc(-c2c[nH]c3ncccc23)n[nH]1)c1ccccc1Oc1ccccc1`, the IC50 is > 5 µM.
The same measure for `O=C(NCc1nc(-c2c[nH]c3ncccc23)n[nH]1)C1CCc2ccccc2C1` (configuration not stated): > 5 µM; for `CCOc1ccccc1C(=O)NCc1nc(-c2c[nH]c3ncccc23)n[nH]1`: > 5 µM; for `CC(=O)NCC(=O)NCc1nc(-c2ccncc2)n[nH]1`: > 5 µM.
